# Laboratory results reported in US10780090B2, “Heteroaryl compounds useful as inhibitors of SUMO activating enzyme” (Millennium Pharmaceuticals, Inc., priority 2014, dated 2020).
# Molecular target: recombinant human SAE enzyme (Homo sapiens (Human), UniProt Q9UBT2)
# Assay: SAE HTRF enzyme assay
# Type: biochemical
# Details: for Percent Inhibition: Concentration 0.111 μM; for IC50: class symbols A/B/C
# Outline: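 Human SAE (0.11 nM) with 0.5 μM ATP, 0.125 μM Sumo-Flag and 0.01 μM Ubc9-GST in HEPES pH 7.5, 5 mM MgCl2, 250 μM GSH; 105 min at 24 °C. Stopped with EDTA; HTRF read after 2 h with Eu-anti-Flag and APC-anti-GST. Percent inhibition or IC50 reported.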
# Chain of recombinant human SAE enzyme (Q9UBT2 whole entry): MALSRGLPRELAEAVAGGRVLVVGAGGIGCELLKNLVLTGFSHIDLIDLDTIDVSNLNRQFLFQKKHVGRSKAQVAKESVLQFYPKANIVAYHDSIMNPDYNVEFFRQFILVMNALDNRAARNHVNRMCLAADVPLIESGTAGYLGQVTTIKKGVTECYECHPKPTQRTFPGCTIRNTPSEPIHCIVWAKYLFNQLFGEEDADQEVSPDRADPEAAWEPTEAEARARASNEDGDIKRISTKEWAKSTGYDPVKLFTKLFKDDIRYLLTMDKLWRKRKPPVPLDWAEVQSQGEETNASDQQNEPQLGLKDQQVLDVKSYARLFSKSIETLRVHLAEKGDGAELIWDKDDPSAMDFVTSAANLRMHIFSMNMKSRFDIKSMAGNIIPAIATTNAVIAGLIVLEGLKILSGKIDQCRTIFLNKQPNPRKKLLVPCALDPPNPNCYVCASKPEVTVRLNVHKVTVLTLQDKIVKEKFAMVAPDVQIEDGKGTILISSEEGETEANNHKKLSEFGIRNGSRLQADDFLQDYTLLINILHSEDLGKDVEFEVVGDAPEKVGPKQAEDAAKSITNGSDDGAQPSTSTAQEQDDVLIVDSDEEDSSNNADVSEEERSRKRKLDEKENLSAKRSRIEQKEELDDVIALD
# Chain of recombinant human SAE enzyme (Q9UBE0 whole entry partner): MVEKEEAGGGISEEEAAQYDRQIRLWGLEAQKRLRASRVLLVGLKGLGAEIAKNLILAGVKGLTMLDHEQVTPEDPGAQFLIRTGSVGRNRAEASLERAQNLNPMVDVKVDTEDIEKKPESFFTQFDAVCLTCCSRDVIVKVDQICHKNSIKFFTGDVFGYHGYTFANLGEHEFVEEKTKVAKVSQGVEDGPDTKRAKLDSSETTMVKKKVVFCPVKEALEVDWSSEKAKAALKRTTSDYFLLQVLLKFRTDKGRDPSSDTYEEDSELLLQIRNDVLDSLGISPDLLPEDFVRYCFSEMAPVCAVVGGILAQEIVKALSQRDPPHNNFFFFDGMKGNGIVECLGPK
Structure (SMILES),Percent Inhibition,IC50
"NS(=O)(=O)OC[C@H]1C[C@@H](Nc2ncncc2C(=O)c2cc(C(O)c3cccc(Cl)n3)cs2)C[C@@H]1O (single isomer, unassigned) [I-29b, [(1R,2S,4R)-4-{[5-({4-[(S)-(6-chloropyridin-2-yl)(hydroxy)methyl]-2-thienyl}carbonyl)pyrimidin-4-yl]amino}-2-hydroxycyclopentyl]methyl sulfamate or [(1R,2S,4R)-4-{[5-({4-[(R)-(6-chloropyridin-2-yl)(hydroxy)methyl]-2-thienyl}carbonyl)pyrimidin-4-yl]amino}-2-hydroxycyclopentyl]methyl sulfamate]",99,< 10 nM
"C[C@](O)(c1cccc(Cl)c1)c1coc(C(=O)c2cncnc2N[C@@H]2C[C@H](COS(N)(=O)=O)[C@@H](O)C2)c1 (single isomer, unassigned) [I-30a, {(1R,2S,4R)-4-[(5-{4-[(1S)-1-(3-chlorophenyl)-1-hydroxyethyl]-2-furoyl}pyrimidin-4-yl)amino]-2-hydroxycyclopentyl}methyl sulfamate or {(1R,2S,4R)-4-[(5-{4-[(1R)-1-(3-chlorophenyl)-1-hydroxyethyl]-2-furoyl}pyrimidin-4-yl)amino]-2-hydroxycyclopentyl}methyl sulfamate]",100,< 10 nM
"C[C@](O)(c1cccc(Cl)c1)c1coc(C(=O)c2cncnc2N[C@@H]2C[C@H](COS(N)(=O)=O)[C@@H](O)C2)c1 (single isomer, unassigned) [I-30b, {(1R,2S,4R)-4-[(5-{4-[(1S)-1-(3-chlorophenyl)-1-hydroxyethyl]-2-furoyl}pyrimidin-4-yl)amino]-2-hydroxycyclopentyl}methyl sulfamate or {(1R,2S,4R)-4-[(5-{4-[(1R)-1-(3-chlorophenyl)-1-hydroxyethyl]-2-furoyl}pyrimidin-4-yl)amino]-2-hydroxycyclopentyl}methyl sulfamate]",88,10 to 100 nM
"NS(=O)(=O)OC[C@H]1C[C@@H](Nc2ncncc2C(=O)c2cc([C@@]3(c4ccccc4)CCCO3)cs2)C[C@@H]1O (single isomer, unassigned) [I-32a, [(1R,2S,4R)-2-hydroxy-4-{[5-({4-[(2S)-2-phenyltetrahydrofuran-2-yl]-2-thienyl}carbonyl)pyrimidin-4-yl]amino}cyclopentyl]methyl sulfamate or [(1R,2S,4R)-2-hydroxy-4-{[5-({4-[(2R)-2-phenyltetrahydrofuran-2-yl]-2-thienyl}carbonyl)pyrimidin-4-yl]amino}cyclopentyl]methyl sulfamate]",98,< 10 nM
"NS(=O)(=O)OC[C@H]1C[C@@H](Nc2ncncc2C(=O)c2cc([C@@]3(c4ccccc4)CCCO3)cs2)C[C@@H]1O (single isomer, unassigned) [I-32b, [(1R,2S,4R)-2-hydroxy-4-{[5-({4-[(2S)-2-phenyltetrahydrofuran-2-yl]-2-thienyl}carbonyl)pyrimidin-4-yl]amino}cyclopentyl]methyl sulfamate or [(1R,2S,4R)-2-hydroxy-4-{[5-({4-[(2R)-2-phenyltetrahydrofuran-2-yl]-2-thienyl}carbonyl)pyrimidin-4-yl]amino}cyclopentyl]methyl sulfamate]",90,10 to 100 nM
"N[C@H](c1cccc(Cl)c1)c1csc(C(=O)c2cncnc2N[C@@H]2C[C@H](COS(N)(=O)=O)[C@@H](O)C2)c1 (single isomer, unassigned) [I-36a, [(1R,2S,4R)-4-{[5-({4-[(R)-amino(3-chlorophenyl)methyl]-2-thienyl}carbonyl)pyrimidin-4-yl]amino}-2-hydroxycyclopentyl]methyl sulfamate or [(1R,2S,4R)-4-{[5-({4-[(S)-amino(3-chlorophenyl)methyl]-2-thienyl}carbonyl)pyrimidin-4-yl]amino}-2-hydroxycyclopentyl]methyl sulfamate]",100,< 10 nM
"N[C@H](c1cccc(Cl)c1)c1csc(C(=O)c2cncnc2N[C@@H]2C[C@H](COS(N)(=O)=O)[C@@H](O)C2)c1 (single isomer, unassigned) [I-36b, [(1R,2S,4R)-4-{[5-({4-[(R)-amino(3-chlorophenyl)methyl]-2-thienyl}carbonyl)pyrimidin-4-yl]amino}-2-hydroxycyclopentyl]methyl sulfamate or [(1R,2S,4R)-4-{[5-({4-[(S)-amino(3-chlorophenyl)methyl]-2-thienyl}carbonyl)pyrimidin-4-yl]amino}-2-hydroxycyclopentyl]methyl sulfamate]",99,< 10 nM
"NS(=O)(=O)OC[C@H]1C[C@@H](Nc2ncncc2C(=O)c2cc([C@@]3(c4cccc(Cl)c4)CCCN3)cs2)C[C@@H]1O (single isomer, unassigned) [I-38a, [(1R,2S,4R)-4-{[5-({4-[(2S)-2-(3-chlorophenyl)pyrrolidin-2-yl]-2-thienyl}carbonyl)pyrimidin-4-yl]amino}-2-hydroxycyclopentyl]methyl sulfamate or [(1R,2S,4R)-4-{[5-({4-[(2R)-2-(3-chlorophenyl)pyrrolidin-2-yl]-2-thienyl}carbonyl)pyrimidin-4-yl]amino}-2-hydroxycyclopentyl]methyl sulfamate]",75,10 to 100 nM
"NS(=O)(=O)OC[C@H]1C[C@@H](Nc2ncncc2C(=O)c2cc([C@@]3(c4cccc(Cl)c4)CCCN3)cs2)C[C@@H]1O (single isomer, unassigned) [I-38b, [(1R,2S,4R)-4-{[5-({4-[(2S)-2-(3-chlorophenyl)pyrrolidin-2-yl]-2-thienyl}carbonyl)pyrimidin-4-yl]amino}-2-hydroxycyclopentyl]methyl sulfamate or [(1R,2S,4R)-4-{[5-({4-[(2R)-2-(3-chlorophenyl)pyrrolidin-2-yl]-2-thienyl}carbonyl)pyrimidin-4-yl]amino}-2-hydroxycyclopentyl]methyl sulfamate]",98,< 10 nM
"NS(=O)(=O)OC[C@H]1C[C@@H](Nc2ncncc2C(=O)c2cc(Cc3cccc(Cl)c3)c([C@@H]3CCCO3)s2)C[C@@H]1O (single isomer, unassigned) [I-41a, [(1R,2S,4R)-4-{[5-({4-(3-chlorobenzyl)-5-[(2S)-tetrahydrofuran-2-yl]-2-thienyl}carbonyl)pyrimidin-4-yl]amino}-2-hydroxycyclopentyl]methyl sulfamate or [(1R,2S,4R)-4-{[5-({4-(3-chlorobenzyl)-5-[(2R)-tetrahydrofuran-2-yl]-2-thienyl}carbonyl)pyrimidin-4-yl]amino}-2-hydroxycyclopentyl]methyl sulfamate]",98,< 10 nM
"NS(=O)(=O)OC[C@H]1C[C@@H](Nc2ncncc2C(=O)c2cc(Cc3cccc(Cl)c3)c([C@@H]3CCCO3)s2)C[C@@H]1O (single isomer, unassigned) [I-41b, [(1R,2S,4R)-4-{[5-({4-(3-chlorobenzyl)-5-[(2S)-tetrahydrofuran-2-yl]-2-thienyl}carbonyl)pyrimidin-4-yl]amino}-2-hydroxycyclopentyl]methyl sulfamate or [(1R,2S,4R)-4-{[5-({4-(3-chlorobenzyl)-5-[(2R)-tetrahydrofuran-2-yl]-2-thienyl}carbonyl)pyrimidin-4-yl]amino}-2-hydroxycyclopentyl]methyl sulfamate]",98,< 10 nM
